Test results: patent US9073853B2, “Cycloalkane carboxylic acid derivatives as CXCR3 receptor antagonists” (Sanofi, priority 2011, dated 2015)
Structures can show the parent of a compound that is named as a salt.

What follows are molecules tested against human CXCR3-A receptor (Homo sapiens (Human), UniProt P49682) (assay: 125I-CXCL10 competition radioligand binding assay). Details: displacement of 125I-CXCL10 from membranes of CHO cells expressing human recombinant CXCR3-A.
Method in brief: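 Membranes from a recombinant cell line expressing human CXCR3-A (10-20 μg protein) were incubated with 125I-CXCL10 and test compound for 60 min at 25° C, then filtered onto PEI-soaked GF/B filters and gamma-counted. IC50 and Hill slope came from four-parameter nonlinear fitting of competition curves.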

human CXCR3-A receptor, sequence (P49682 whole entry): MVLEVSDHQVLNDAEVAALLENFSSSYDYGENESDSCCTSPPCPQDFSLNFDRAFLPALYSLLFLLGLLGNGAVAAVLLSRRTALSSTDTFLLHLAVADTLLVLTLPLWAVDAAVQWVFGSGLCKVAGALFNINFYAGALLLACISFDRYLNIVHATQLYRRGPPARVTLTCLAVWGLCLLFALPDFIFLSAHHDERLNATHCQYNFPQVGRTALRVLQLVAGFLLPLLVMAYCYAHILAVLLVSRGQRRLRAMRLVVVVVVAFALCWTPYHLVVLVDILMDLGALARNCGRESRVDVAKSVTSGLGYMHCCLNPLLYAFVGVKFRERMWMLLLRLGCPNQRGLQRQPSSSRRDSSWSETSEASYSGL

| SMILES | IC50 |
| --- | --- |
| COc1cc(CN(C(C)c2ccc(Cl)c(F)c2)[C@H]2C[C@@H](C(=O)O)C2)ccc1OCCN1C(=O)CCC1=O (stereo partly drawn) [Example 142, cis-3-([1-(4-Chloro-3-fluoro-phenyl)-ethyl]-{4-[2-(2,5-dioxo-pyrrolidin-1-yl)-ethoxy]-3-methoxy-benzyl}-amino)-cyclobutanecarboxylic acid] | 0.12 µM |
| Cc1cc(CN([C@H]2C[C@@H](C(=O)O)C2)[C@H](C)c2ccc(Cl)cc2)ccc1CCCN1C(=O)CCC1=O [Example 143, cis-3-([(R)-1-(4-Chloro-phenyl)-ethyl]-{4-[3-(2,5-dioxo-pyrrolidin-1-yl)-propyl]-3-methyl-benzyl}-amino)-cyclobutanecarboxylic acid] | 3 µM |
| COc1cc(CN(C[C@H]2CC[C@H](C(=O)O)CC2)C(C)c2ccc3c(c2)CCC3)ccc1OCCN1C(=O)CCC1=O (stereo partly drawn) [Example 144, trans-4-{[{4-[2-(2,5-Dioxo-pyrrolidin-1-yl)-ethoxy]-3-methoxy-benzyl}-(1-indan-5-yl-ethyl)-amino]-methyl}-cyclohexanecarboxylic acid] | 0.167 µM |
| COc1cc(CN(C[C@H]2CC[C@H](C(=O)O)CC2)C(C)c2ccc3c(c2)CCC3)ccc1OCCN1C(=O)CN(C)C1=O (stereo partly drawn) [Example 145, trans-4-[((1-Indan-5-yl-ethyl)-{3-methoxy-4-[2-(3-methyl-2,5-dioxo-imidazolidin-1-yl)-ethoxy]-benzyl}-amino)-methyl]-cyclohexanecarboxylic acid] | 0.146 µM |
| COc1cc(CN(C[C@H]2CC[C@H](C(=O)O)CC2)[C@H]2CCc3cc(Cl)ccc32)ccc1OCCN1C(=O)C2CC2C1=O (stereo partly drawn) [Example 146, -4-[(((S)-5-Chloro-indan-1-yl)-{4-[2-(2,4-dioxo-3-aza-bicyclo[3.1.0]hex-3-yl)-ethoxy]-3-methoxy-benzyl}-amino)-methyl]-cyclohexanecarboxylic acid] | 0.254 µM |
| COc1cc(CN(C[C@H]2CC[C@H](C(=O)O)CC2)[C@H]2CCc3cc(Cl)ccc32)ccc1OCCN1C(=O)CC2(CCCC2)CC1=O [Example 147, 4-[(((S)-5-Chloro-indan-1-yl)-{4-[2-(7,9-dioxo-8-aza-spiro[4.5]dec-8-yl)-ethoxy]-3-methoxy-benzyl}-amino)-methyl]-cyclohexanecarboxylic acid] | 7 µM |
| COc1cc(CN(C[C@H]2CC[C@H](C(=O)O)CC2)[C@H]2CCc3c2ccc(Cl)c3F)ccc1OCCN1C(=O)CCC1=O [Example 148, trans-4-[(((S)-5-Chloro-4-fluoro-indan-1-yl)-{4-[2-(2,5-dioxo-pyrrolidin-1-yl)-ethoxy]-3-methoxy-benzyl}-amino)-methyl]-cyclohexanecarboxylic acid] | 0.026 µM |
| CCc1cc(CN(C[C@H]2CC[C@H](C(=O)O)CC2)[C@H]2CCc3c2ccc(Cl)c3F)ccc1OCCN1C(=O)CCC1=O [Example 149, trans-4-[(((S)-5-Chloro-4-fluoro-indan-1-yl)-{4-[2-(2,5-dioxo-pyrrolidin-1-yl)-ethoxy]-3-ethyl-benzyl}-amino)-methyl]-cyclohexanecarboxylic acid] | 0.165 µM |
| COc1cc(CN([C@H]2C[C@@H](C(=O)O)C2)[C@H](C)c2ccc(Cl)c(F)c2)ccc1OCCN1C(=O)CCC1=O [Example 150, cis-3-([(R)-1-(4-Chloro-3-fluoro-phenyl)-ethyl]-{4-[2-(2,5-dioxo-pyrrolidin-1-yl)-ethoxy]-3-methoxy-benzyl}-amino)-cyclobutanecarboxylic acid] | 0.098 µM |
| CCc1cc(CN([C@H]2C[C@@H](C(=O)O)C2)[C@H](C)c2ccc(Cl)c(F)c2)ccc1OCCN1C(=O)CCC1=O [Example 151, cis-3-([(R)-1-(4-Chloro-3-fluoro-phenyl)-ethyl]-{4-[2-(2,5-dioxo-pyrrolidin-1-yl)-ethoxy]-3-ethyl-benzyl}-amino)-cyclobutanecarboxylic acid] | 0.457 µM |
| COc1cc(CN([C@H]2C[C@@H](C(=O)O)C2)[C@H](C)c2ccc(Cl)c(Cl)c2)ccc1OCCN1C(=O)CCC1=O [Example 152, cis-3-([(R)-1-(3,4-Dichloro-phenyl)-ethyl]-{4-[2-(2,5-dioxo-pyrrolidin-1-yl)-ethoxy]-3-methoxy-benzyl}-amino)-cyclobutanecarboxylic acid] | 0.149 µM |
| Cc1cc(CN([C@H]2C[C@@H](C(=O)O)C2)[C@H](C)c2ccc(Cl)cc2)ccc1OCCN1C(=O)CN(C)C1=O [Example 153, cis-3-([(R)-1-(4-Chloro-phenyl)-ethyl]-{3-methyl-4-[2-(3-methyl-2,5-dioxo-imidazolidin-1-yl)-ethoxy]-benzyl}-amino)-cyclobutanecarboxylic acid] | 0.294 µM |
| COc1cc(CN(C[C@H]2CC[C@H](C(=O)O)CC2)C(C)c2ccc(C(F)(F)F)cc2)ccc1OCCN1C(=O)CCC1=O (stereo partly drawn) [Example 154, trans-4-({{4-[2-(2,5-Dioxo-pyrrolidin-1-yl)-ethoxy]-3-methoxy-benzyl}-[1-(4-trifluoromethyl-phenyl)-ethyl]-amino}-methyl)-cyclohexanecarboxylic acid] | 0.07 µM |
| COc1cc(CN(C[C@H]2CC[C@H](C(=O)O)CC2)[C@H]2CCc3cc(Cl)ccc32)ccc1OCCN1C(=O)[C@H]2CC=CC[C@H]2C1=O [Example 155, trans-4-[(((S)-5-Chloro-indan-1-yl)-{4-[2-((3aS,7aR)-1,3-dioxo-1,3,3a,4,7,7a-hexahydro-isoindol-2-yl)-ethoxy]-3-methoxy-benzyl}-amino)-methyl]-cyclohexanecarboxylic acid; hydrochloride] | 2.87 µM |
| COc1cc(CN(C[C@H]2CC[C@H](C(=O)O)CC2)[C@H]2CCc3cc(Cl)ccc32)ccc1OCCN1C(=O)c2ccccc2C1=O [Example 156, trans-4-[(((S)-5-Chloro-indan-1-yl)-{4-[2-(1,3-dioxo-1,3-dihydro-isoindol-2-yl)-ethoxy]-3-methoxy-benzyl}-amino)-methyl]-cyclohexanecarboxylic acid; hydrochloride] | 0.079 µM |
| Cc1cc(CN(C[C@H]2CC[C@H](C(=O)O)CC2)[C@H]2CCc3c2ccc(Cl)c3F)ccc1OCCN1C(=O)CN(C)C1=O [Example 157, trans-4-[(((S)-5-Chloro-4-fluoro-indan-1-yl)-{3-methyl-4-[2-(3-methyl-2,5-dioxo-imidazolidin-1-yl)-ethoxy]-benzyl}-amino)-methyl]-cyclohexanecarboxylic acid] | 0.071 µM |
| COc1cc(CN(CC2CC(C(=O)O)C2)[C@H]2CCc3cc(Cl)ccc32)ccc1OCCN1C(=O)CCC1=O (stereo partly drawn) [Example 158, 3-[(((S)-5-Chloro-indan-1-yl)-{4-[2-(2,5-dioxo-pyrrolidin-1-yl)-ethoxy]-3-methoxy-benzyl}-amino)-methyl]-cyclobutanecarboxylic acid] | 1.06 µM |
| COc1cc(CN([C@H]2C[C@@H](C(=O)O)C2)[C@H](C)c2ccc3c(c2)CCC3)ccc1OCCn1c(=O)ccn(C)c1=O [Example 159, cis-3-(((R)-1-Indan-5-yl-ethyl)-{3-methoxy-4-[2-(3-methyl-2,6-dioxo-3,6-dihydro-2H-pyrimidin-1-yl)-ethoxy]-benzyl}-amino)-cyclobutanecarboxylic acid] | 0.544 µM |

Same assay, conditions: read-out: % at 10 μM; at 10 μM; displacement of 125I-CXCL10

| SMILES | inhibition at 10 µM |
| --- | --- |
| COc1cc(CN([C@H]2C[C@H](C(=O)O)C2)[C@H](C)c2ccc3c(c2)CCC3)ccc1OCCn1c(=O)ccn(C)c1=O [Example 160, trans-3-(((R)-1-Indan-5-yl-ethyl)-{3-methoxy-4-[2-(3-methyl-2,6-dioxo-3,6-dihydro-2H-pyrimidin-1-yl)-ethoxy]-benzyl}-amino)-cyclobutanecarboxylic acid] | 26% |
